Measured values taken from ChEMBL document CHEMBL4002633, “Synthesis, evaluation and quantitative structure-activity relationship (QSAR) analysis of Wogonin derivatives as cytotoxic agents” (Bioorg Med Chem Lett, 2017).

Legend:
HepG2 [1] = experiment: Cytotoxicity against human HepG2 cells assessed as reduction in cell viability after 48 hrs by MTT assay; format: functional, cell-based; settings: HepG2, 48 h
A549 [2] = experiment: Cytotoxicity against human A549 cells assessed as reduction in cell viability after 48 hrs by MTT assay; format: functional, cell-based; settings: A549, 48 h
[3] = Cytotoxicity against human BCG823 cells assessed as reduction in cell viability after 48 hrs by MTT assay; format: functional, cell-based; settings: BCG823, 48 h
HepG2 [4] = experiment: Potency index, ratio of 5-fluorouracil IC50 to compound IC50 for human HepG2 cells; format: functional
[5] = Potency index, ratio of 5-fluorouracil IC50 to compound IC50 for human BCG823 cells; format: functional
A549 [6] = experiment: Potency index, ratio of 5-fluorouracil IC50 to compound IC50 for human A549 cells; format: functional

| Structure (SMILES) | IC50 (HepG2 [1]; read-out: IC50) [µM] | IC50 (HepG2 [1]; read-out: pIC50 (converted)) [µM] | IC50 (A549 [2]) [µM] | IC50 [3] [µM] | Ratio IC50 (HepG2 [4]) | Ratio IC50 [5] | Ratio IC50 (A549 [6]) |
| --- | --- | --- | --- | --- | --- | --- | --- |
| COc1c(OCc2ncc(C)o2)cc(O)c2c(=O)cc(-c3ccccc3)oc12 | 20.2 | 20.4 | > 100 | – | – | – | – |
| COc1c(OCCCCN2CCNCC2)cc(O)c2c(=O)cc(-c3ccccc3)oc12 | 1.07 | 1.07 | 1.74 | 0.98 | 18 | 17 | 9 |
| O=c1cc(-c2ccccc2)oc2c(OCCCCNC3CCCCC3)c(O)cc(O)c12 | 10.9 | 11 | – | 48.6 | – | – | – |
| COc1c(O)cc(O)c2c(=O)cc(-c3ccc(Cl)cc3)oc12 | 34.2 | 33.9 | – | – | – | – | – |
| COc1c(OCCCNCc2ccccc2)cc(O)c2c(=O)cc(-c3ccccc3)oc12 | 8.12 | 8.13 | 1.57 | 9.93 | – | – | – |
| COc1c(OCCCCN(CCO)CCO)cc(O)c2c(=O)cc(-c3ccccc3)oc12 | 2.64 | 2.63 | 1.26 | 5.89 | – | – | – |
| CCN(CC)CCCOc1c(O)cc(O)c2c(=O)cc(-c3ccccc3)oc12 | 67.5 | 67.6 | > 100 | – | – | – | – |
| O=c1cc(-c2ccccc2)oc2c(OCCN3CCOCC3)c(O)cc(O)c12 | 39.9 | 39.8 | > 100 | – | – | – | – |
| COc1c(O)cc(O)c2c(=O)cc(-c3ccc(F)cc3Br)oc12 | 33.5 | 33.9 | – | – | – | – | – |
| O=c1cc(-c2ccccc2)oc2c(OCCCCN3CCOCC3)c(O)cc(O)c12 | 15.1 | 15.1 | 82.3 | – | – | – | – |
| CN(C)CCOc1c(O)cc(O)c2c(=O)cc(-c3ccccc3)oc12 | 40 | 39.8 | > 100 | – | – | – | – |
| CNCCCCOc1c(O)cc(O)c2c(=O)cc(-c3ccccc3)oc12 | 97 | 97.7 | – | > 100 | – | – | – |
| COc1c(OCCCCN2CCN(C)CC2)cc(O)c2c(=O)cc(-c3ccccc3)oc12 | 1.12 | 1.12 | 1.5 | 5.3 | – | – | – |
| CC(C)NCCCCOc1c(O)cc(O)c2c(=O)cc(-c3ccccc3)oc12 | 29.9 | 30.2 | – | 71.2 | – | – | – |
| COc1c(OCCCN2CCOCC2)cc(O)c2c(=O)cc(-c3ccccc3)oc12 | 6.5 | 6.46 | 2.3 | 3.7 | – | – | – |
| CC(C)NCCOc1c(O)cc(O)c2c(=O)cc(-c3ccccc3)oc12 | 14.1 | 14.1 | – | > 100 | – | – | – |
| O=c1cc(-c2ccccc2)oc2c(OCCCN3CCOCC3)c(O)cc(O)c12 | 21.5 | 20.9 | > 100 | – | – | – | – |
| CCCNCCCCOc1c(O)cc(O)c2c(=O)cc(-c3ccccc3)oc12 | 9.99 | 10 | – | 51 | – | – | – |
| CCN(CC)CCOc1c(O)cc(O)c2c(=O)cc(-c3ccccc3)oc12 | 68.1 | 67.6 | > 100 | – | – | – | – |
| CCN(CC)CCCCOc1cc(O)c2c(=O)cc(-c3ccccc3)oc2c1OC | 1.72 | 1.74 | 1 | 6.17 | – | – | – |
| CN(C)CCCCOc1c(O)cc(O)c2c(=O)cc(-c3ccccc3)oc12 | 35.7 | 35.5 | > 100 | – | – | – | – |
| COc1c(OCc2cnoc2C)cc(O)c2c(=O)cc(-c3ccccc3)oc12 | 21.7 | 21.9 | > 100 | – | – | – | – |
| CN(C)CCCOc1c(O)cc(O)c2c(=O)cc(-c3ccccc3)oc12 | 41.8 | 41.7 | > 100 | – | – | – | – |
| COc1c(OCCCN(CCO)CCO)cc(O)c2c(=O)cc(-c3ccccc3)oc12 | 3.79 | 3.8 | 3 | 6.45 | – | – | – |
| CC(CO)NCCOc1c(O)cc(O)c2c(=O)cc(-c3ccccc3)oc12 (stereo not given) | 43.5 | 43.7 | – | 92.2 | – | – | – |
| CNCCOc1c(O)cc(O)c2c(=O)cc(-c3ccccc3)oc12 | 64.2 | 64.6 | – | 59.9 | – | – | – |

| Structure (SMILES) | IC50 (HepG2 [1]; read-out: IC50) [µM] | IC50 (HepG2 [1]; read-out: pIC50 (converted)) [µM] | IC50 (A549 [2]) [µM] | IC50 [3] [µM] | Ratio IC50 (HepG2 [4]) | Ratio IC50 [5] | Ratio IC50 (A549 [6]) |
| --- | --- | --- | --- | --- | --- | --- | --- |
| COc1c(OCCCN2CCN(C)CC2)cc(O)c2c(=O)cc(-c3ccccc3)oc12 | 31.6 | 31.6 | 9.9 | 52.7 | – | – | – |
| COc1c(OCCCCN2CCCC2)cc(O)c2c(=O)cc(-c3ccccc3)oc12 | 3.61 | 3.63 | 1.53 | 6.34 | – | – | – |
| COc1c(OCCCCN2CCCCC2)cc(O)c2c(=O)cc(-c3ccccc3)oc12 | 1.97 | 1.95 | 1.15 | 18.2 | – | – | – |
| O=c1cc(-c2ccccc2)oc2c(OCCCN3CCCC3)c(O)cc(O)c12 | 58.5 | 58.9 | > 100 | – | – | – | – |
| CN1CCN(CCOc2c(O)cc(O)c3c(=O)cc(-c4ccccc4)oc23)CC1 | 56.6 | 56.2 | > 100 | – | – | – | – |
| COc1c(OCCCCNCc2ccccc2)cc(O)c2c(=O)cc(-c3ccccc3)oc12 | 45.7 | 45.7 | 4.59 | 48.1 | – | – | – |
| COc1c(O)cc(O)c2c(=O)cc(-c3ccc(F)cc3)oc12 | 43.9 | 43.7 | – | – | – | – | – |
| COc1c(O)cc(O)c2c(=O)cc(-c3ccc(C)cc3)oc12 | 24.9 | 25.1 | – | – | – | – | – |
| CN1CCN(CCCOc2c(O)cc(O)c3c(=O)cc(-c4ccccc4)oc23)CC1 | 42.6 | 42.7 | > 100 | – | – | – | – |
| COc1c(OCCCN2CCCC2)cc(O)c2c(=O)cc(-c3ccccc3)oc12 | 15.4 | 15.5 | 1.39 | 17.9 | – | – | – |
| COc1c(O)cc(O)c2c(=O)cc(-c3ccc(Br)cc3)oc12 | 38.2 | 38 | – | – | – | – | – |
| O=c1cc(-c2ccccc2)oc2c(OCCN3CCCC3)c(O)cc(O)c12 | 68.5 | 69.2 | 67.7 | – | – | – | – |
| COc1c(OCc2nc3ccccc3[nH]2)cc(O)c2c(=O)cc(-c3ccccc3)oc12 | 29.4 | 29.5 | > 100 | – | – | – | – |
| COc1c(OCCCN2CCNCC2)cc(O)c2c(=O)cc(-c3ccccc3)oc12 | 9.14 | 9.12 | 10.1 | 12 | – | – | – |
| CN1CCN(CCCCOc2c(O)cc(O)c3c(=O)cc(-c4ccccc4)oc23)CC1 | 15.1 | 15.1 | > 100 | – | – | – | – |
| CCCCNCCCCOc1c(O)cc(O)c2c(=O)cc(-c3ccccc3)oc12 | 38.9 | 38.9 | – | 61.9 | – | – | – |
| COc1c(O)cc(O)c2c(=O)cc(-c3cccc(F)c3)oc12 | 59.4 | 58.9 | – | – | – | – | – |
| CCN(CC)CCCOc1cc(O)c2c(=O)cc(-c3ccccc3)oc2c1OC | 3.33 | 3.31 | 1.83 | 13.3 | – | – | – |
| O=c1cc(-c2ccccc2)oc2c(OCCNCCO)c(O)cc(O)c12 | 57 | 57.5 | – | 59.8 | – | – | – |
| CCCCNCCOc1c(O)cc(O)c2c(=O)cc(-c3ccccc3)oc12 | 57.2 | 57.5 | – | 72.4 | – | – | – |
| COc1c(OCCCCN2CCOCC2)cc(O)c2c(=O)cc(-c3ccccc3)oc12 | 3.3 | 3.31 | 1.52 | 5.3 | – | – | – |
| CCCNCCOc1c(O)cc(O)c2c(=O)cc(-c3ccccc3)oc12 | 98.4 | 97.7 | – | 63 | – | – | – |
| O=c1[nH]cc(F)c(=O)[nH]1 [FLUOROURACIL] | 17.2 | – | 16.1 | 10.1 | – | – | – |
| COc1ccc(-c2cc(=O)c3c(O)cc(O)c(OC)c3o2)cc1 [GALANGUSTIN] | 42.4 | 42.7 | – | – | – | – | – |
| COc1c(O)cc(O)c2c(=O)cc(-c3ccccc3)oc12 [WOGONIN] | 19 | 19.1 | 15.8 | 16.5 | – | – | – |
